Data from PubChem BioAssay AID2060496 (Molecular Pharmacology Branch, DTP, NCI, 2025).

Tested on: 276233-004-R-J1-PDC complex spheroid viability
Test: Anticancer human tumor 276233-004-R-J1-PDC patient-derived colon adenocarcinoma cell line growth inhibition [GQUAD]
Settings: for IC50: curve of first compound; for viability, T/C: stronger effect = lower value
Procedure, shortened: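 Tumor cells were grown as complex spheroids with HUVEC endothelial cells and mesenchymal stem cells as stroma. G-quadruplex stabilizers were combined with targeted agents over half-log dilutions from near the clinical Cmax, or from 10 microM.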

[1] = second compound 0.0316 µM, first compound 0.0316 µM
[2] = second compound 0.0316 µM, first compound 0.1 µM
[3] = second compound 0.0316 µM, first compound 0.316 µM
[4] = second compound 0.0316 µM, first compound 1 µM
[5] = second compound 0.0316 µM, first compound 3.16 µM
[6] = second compound 0.0316 µM, first compound 10 µM
[7] = second compound 0.1 µM, first compound 0.0316 µM
[8] = second compound 0.1 µM, first compound 0.1 µM
[9] = second compound 0.1 µM, first compound 0.316 µM
[10] = second compound 0.1 µM, first compound 1 µM
[11] = second compound 0.1 µM, first compound 3.16 µM
[12] = second compound 0.1 µM, first compound 10 µM
[13] = second compound 0.316 µM, first compound 0.0316 µM
[14] = second compound 0.316 µM, first compound 0.1 µM
[15] = second compound 0.316 µM, first compound 0.316 µM
[16] = second compound 0.316 µM, first compound 1 µM
[17] = second compound 0.316 µM, first compound 3.16 µM
[18] = second compound 0.316 µM, first compound 10 µM
[19] = second compound 1 µM, first compound 0.0316 µM
[20] = second compound 1 µM, first compound 0.1 µM
[21] = second compound 1 µM, first compound 0.316 µM
[22] = second compound 1 µM, first compound 1 µM
[23] = second compound 1 µM, first compound 3.16 µM
[24] = second compound 1 µM, first compound 10 µM
[25] = second compound 3.16 µM, first compound 0.0316 µM
[26] = second compound 3.16 µM, first compound 0.1 µM
[27] = second compound 3.16 µM, first compound 0.316 µM
[28] = second compound 3.16 µM, first compound 1 µM
[29] = second compound 3.16 µM, first compound 3.16 µM
[30] = second compound 3.16 µM, first compound 10 µM
[31] = second compound 10 µM, first compound 0.0316 µM
[32] = second compound 10 µM, first compound 0.1 µM
[33] = second compound 10 µM, first compound 0.316 µM
[34] = second compound 10 µM, first compound 1 µM
[35] = second compound 10 µM, first compound 3.16 µM
[36] = second compound 10 µM, first compound 10 µM
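Further: spheroids exposed to drugs for seven days.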
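Wherever viability, T/C is given: 100% = DMSO vehicle control viability.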

Work on `CC(C)n1c(=O)n(C)c2cnc3cc(F)c(-c4ccc(OCCCN5CCCCC5)nc4)cc3c21` + Cc1cnc(CNC(=O)c2c(=O)c3ccc(N4CCCN(C)CC4)nc3n3c2sc2ccccc23)cn1 yielded an IC50 (second compound 0.0316 µM) greater than 10 µM, an IC50 (second compound 0.1 µM) greater than 10 µM and an IC50 (second compound 0.316 µM) greater than 10 µM. For the same compound, the IC50 (second compound 1 µM) was greater than 10 µM, the IC50 (second compound 3.16 µM) was greater than 10 µM and the IC50 (second compound 10 µM) was greater than 10 µM. For the same compound, the viability, T/C [1] was 81.3%, the viability, T/C [2] was 71.9% and the viability, T/C [3] was 82.5%. It also gave a viability, T/C [4] of 89.4%, a viability, T/C [5] of 79.3% and a viability, T/C [6] of 79.2%. For the same compound, the viability, T/C [7] was 79%, the viability, T/C [8] was 83.4% and the viability, T/C [9] was 76.8%. For the same compound, the viability, T/C [10] was 78.9%, the viability, T/C [11] was 96.5% and the viability, T/C [12] was 86.4%. For the same compound, the viability, T/C [13] was 85.9%, the viability, T/C [14] was 96.7% and the viability, T/C [15] was 82.1%. It also gave a viability, T/C [16] of 78.2%, a viability, T/C [17] of 85.2% and a viability, T/C [18] of 81.9%. For the same compound, the viability, T/C [19] was 69.9%, the viability, T/C [20] was 64.9% and the viability, T/C [21] was 89.3%. For the same compound, the viability, T/C [22] was 81.6%, the viability, T/C [23] was 85% and the viability, T/C [24] was 69.7%. The viability, T/C [25] was 80.4%, the viability, T/C [26] was 78% and the viability, T/C [27] was 79.3%. For the same compound, the viability, T/C [28] was 71.9%, the viability, T/C [29] was 75% and the viability, T/C [30] was 76.7%. The viability, T/C [31] was 74.3%, the viability, T/C [32] was 66.7% and the viability, T/C [33] was 66.8%. For the same compound, the viability, T/C [34] was 69.2%, the viability, T/C [35] was 80.8% and the viability, T/C [36] was 66.3%.

`CC1COCCN1c1cc(-c2ccnn2C)c2ccnc(-c3ccn[nH]3)c2n1` (stereo unspecified) + Cc1cnc(CNC(=O)c2c(=O)c3ccc(N4CCCN(C)CC4)nc3n3c2sc2ccccc23)cn1 was tested, and the IC50 (second compound 0.0316 µM) was greater than 10 µM, the IC50 (second compound 0.1 µM) was greater than 10 µM and the IC50 (second compound 0.316 µM) was 3.7 µM. It also gave an IC50 (second compound 1 µM) of 4.44 µM, an IC50 (second compound 3.16 µM) of 3.32 µM and an IC50 (second compound 10 µM) of 1.07 µM. The viability, T/C [1] was 99.5%, the viability, T/C [2] was 57.5% and the viability, T/C [3] was 78.7%. It also gave a viability, T/C [4] of 56%, a viability, T/C [5] of 63.2% and a viability, T/C [6] of 42.5%. For the same compound, the viability, T/C [7] was 79.6%, the viability, T/C [8] was 86.5% and the viability, T/C [9] was 63.2%. The viability, T/C [10] was 67.2%, the viability, T/C [11] was 56.6% and the viability, T/C [12] was 55.1%. It also gave a viability, T/C [13] of 73.1%, a viability, T/C [14] of 67.1% and a viability, T/C [15] of 65.9%. For the same compound, the viability, T/C [16] was 58.9%, the viability, T/C [17] was 51.3% and the viability, T/C [18] was 41.8%. It also gave a viability, T/C [19] of 68.9%, a viability, T/C [20] of 64.7% and a viability, T/C [21] of 67.4%. The viability, T/C [22] was 58.4%, the viability, T/C [23] was 52.3% and the viability, T/C [24] was 43.5%. It also gave a viability, T/C [25] of 63.1%, a viability, T/C [26] of 57.3% and a viability, T/C [27] of 62%. For the same compound, the viability, T/C [28] was 55.8%, the viability, T/C [29] was 49.7% and the viability, T/C [30] was 41.1%. For the same compound, the viability, T/C [31] was 53.4%, the viability, T/C [32] was 50.6% and the viability, T/C [33] was 51%. For the same compound, the viability, T/C [34] was 47.2%, the viability, T/C [35] was 49.2% and the viability, T/C [36] was 38.5%.

`CC1COCCN1c1cc(C2(O)CC3CCC(C2)O3)c2cnn(-c3ccn[nH]3)c2n1` (stereo unspecified) + Cc1cnc(CNC(=O)c2c(=O)c3ccc(N4CCCN(C)CC4)nc3n3c2sc2ccccc23)cn1 gave an IC50 (second compound 0.0316 µM) of 3.1 µM, an IC50 (second compound 0.1 µM) of 3.56 µM and an IC50 (second compound 0.316 µM) of 1.47 µM. The IC50 (second compound 1 µM) was 1.02 µM, the IC50 (second compound 3.16 µM) was 0.642 µM and the IC50 (second compound 10 µM) was 0.271 µM. It also gave a viability, T/C [1] of 81%, a viability, T/C [2] of 61.9% and a viability, T/C [3] of 79.2%. It also gave a viability, T/C [4] of 50.7%, a viability, T/C [5] of 52.1% and a viability, T/C [6] of 40.3%. It also gave a viability, T/C [7] of 79.7%, a viability, T/C [8] of 80.7% and a viability, T/C [9] of 60.6%. For the same compound, the viability, T/C [10] was 63.5%, the viability, T/C [11] was 56.3% and the viability, T/C [12] was 35.8%. For the same compound, the viability, T/C [13] was 71.1%, the viability, T/C [14] was 85.3% and the viability, T/C [15] was 62.6%. It also gave a viability, T/C [16] of 50.6%, a viability, T/C [17] of 48.7% and a viability, T/C [18] of 32.9%. For the same compound, the viability, T/C [19] was 68.8%, the viability, T/C [20] was 75% and the viability, T/C [21] was 50.4%. The viability, T/C [22] was 50%, the viability, T/C [23] was 44.6% and the viability, T/C [24] was 24.9%. For the same compound, the viability, T/C [25] was 55.7%, the viability, T/C [26] was 59.7% and the viability, T/C [27] was 56.4%. The viability, T/C [28] was 44.8%, the viability, T/C [29] was 35.9% and the viability, T/C [30] was 24.6%. The viability, T/C [31] was 63.2%, the viability, T/C [32] was 60.1% and the viability, T/C [33] was 46.9%. For the same compound, the viability, T/C [34] was 41.7%, the viability, T/C [35] was 35.6% and the viability, T/C [36] was 20%.
